# According to ChEMBL document CHEMBL1141945, “Synthesis and biological evaluation of novel (L)-alpha-amino acid methyl ester, heteroalkyl, and aryl substituted 1,4-naphthoquinone derivatives as antifungal and antibacterial agents” (2005):
# How the values were obtained:
# Enterococcus faecalis = assay: Antibacterial activity against Streptococcus faecalis; format: functional
# Klebsiella pneumoniae = assay: Antibacterial activity against Klebsiella pneumoniae; format: functional
# Escherichia coli = assay: Antibacterial activity against Escherichia coli; format: functional
# Pseudomonas aeruginosa = assay: Antibacterial activity against Pseudomonas aeruginosa; format: functional
# Staphylococcus aureus = assay: Antibacterial activity against Staphylococcus aureus; format: functional
# Candida albicans = assay: Antifungal activity against Candida albicans; format: functional
# Cryptococcus neoformans = assay: Antifungal activity against Cryptococcus neoformans; format: functional
# Sporothrix schenckii = assay: Antifungal activity against Sporothrix schenckii; format: functional
# Trichophyton benhamiae = assay: Antifungal activity against Trichophyton mentagrophytes; format: functional, Arthroderma benhamiae
# Aspergillus fumigatus = assay: Antifungal activity against Aspergillus fumigatus; format: functional
# Candida parapsilosis = assay: Antifungal activity against Candida parapsilosis; format: functional; details: Lodderomyces parapsilosis, ATCC 22019
molecule,measurement,setting,value
COC(=O)C(C)/N=C1\C=C(O)c2ccccc2C1=O (centres undefined),MIC,Enterococcus faecalis,> 50 µg/mL
same,MIC,Klebsiella pneumoniae,25 µg/mL
same,MIC,Escherichia coli,> 50 µg/mL
same,MIC,Pseudomonas aeruginosa,> 50 µg/mL
same,MIC,Staphylococcus aureus,> 50 µg/mL
NC[C@H]1O[C@H](O[C@H]2[C@H](O)[C@@H](O[C@H]3O[C@H](CO)[C@@H](O)[C@H](N)[C@H]3O)[C@H](N)C[C@@H]2N)[C@H](O)[C@@H](O)[C@@H]1O [KANAMYCIN],MIC90,Klebsiella pneumoniae,32 µg/mL
same,MIC90,Escherichia coli,16 µg/mL
same,MIC90,Pseudomonas aeruginosa,> 128 µg/mL
same,MIC90,Staphylococcus aureus,2 µg/mL
COC(=O)C(C)/N=C1/C(=O)c2ccccc2C(O)=C1O (centres undefined),MIC,Candida albicans,> 50 µg/mL
same,MIC,Cryptococcus neoformans,25 µg/mL
same,MIC,Sporothrix schenckii,> 50 µg/mL
same,MIC,Trichophyton benhamiae,> 50 µg/mL
same,MIC,Aspergillus fumigatus,> 50 µg/mL
same,MIC,Candida parapsilosis,50 µg/mL
NC[C@H]1O[C@H](O[C@H]2[C@H](O)[C@@H](O[C@H]3O[C@H](CO)[C@@H](O)[C@H](N)[C@H]3O)[C@H](N)C[C@@H]2N)[C@H](N)C[C@@H]1O [TOBRAMYCIN],MIC,Enterococcus faecalis,32 µg/mL
same,MIC,Klebsiella pneumoniae,1 µg/mL
same,MIC,Escherichia coli,0.5 µg/mL
same,MIC,Pseudomonas aeruginosa,4 µg/mL
same,MIC,Staphylococcus aureus,0.25 µg/mL
CC(C)N(C1=CC(=O)c2c(O)ccc(O)c2C1=O)C(C)C,MIC,Candida albicans,> 50 µg/mL
same,MIC,Cryptococcus neoformans,> 50 µg/mL
same,MIC,Sporothrix schenckii,> 50 µg/mL
same,MIC,Trichophyton benhamiae,50 µg/mL
same,MIC,Aspergillus fumigatus,> 50 µg/mL
O=C1c2sc3nccn3c2C(=O)c2c(O)ccc(O)c21,MIC,Candida albicans,25 µg/mL
same,MIC,Cryptococcus neoformans,< 12.5 µg/mL
same,MIC,Sporothrix schenckii,< 12.5 µg/mL
same,MIC,Trichophyton benhamiae,25 µg/mL
same,MIC,Aspergillus fumigatus,> 50 µg/mL
same,MIC,Enterococcus faecalis,25 µg/mL
same,MIC,Klebsiella pneumoniae,> 50 µg/mL
same,MIC,Escherichia coli,50 µg/mL
same,MIC,Pseudomonas aeruginosa,> 50 µg/mL
same,MIC,Staphylococcus aureus,50 µg/mL
Clc1ccc(COC(Cn2ccnc2)c2ccc(Cl)cc2Cl)c(Cl)c1 (centres undefined) [MICONAZOLE],MIC,Candida albicans,25 µg/mL
same,MIC,Cryptococcus neoformans,12.5 µg/mL
same,MIC,Trichophyton benhamiae,< 0.78 µg/mL
same,MIC,Aspergillus fumigatus,12.5 µg/mL
GENTAMICIN,MIC,Klebsiella pneumoniae,0.39 µg/mL
same,MIC,Pseudomonas aeruginosa,0.78 µg/mL
same,MIC,Staphylococcus aureus,0.78 µg/mL
NCC[C@H](O)C(=O)N[C@@H]1C[C@H](N)[C@@H](O[C@H]2O[C@H](CN)[C@@H](O)[C@H](O)[C@H]2O)[C@H](O)[C@H]1O[C@H]1O[C@H](CO)[C@@H](O)[C@H](N)[C@H]1O [AMIKACIN],MIC,Enterococcus faecalis,> 64 µg/mL
same,MIC,Klebsiella pneumoniae,1 µg/mL
same,MIC,Escherichia coli,1 µg/mL
same,MIC,Pseudomonas aeruginosa,2 µg/mL
same,MIC,Staphylococcus aureus,16 µg/mL
CC(C)N(C1=C(O)C(=O)c2ccccc2C1=O)C(C)C,MIC,Enterococcus faecalis,> 50 µg/mL
same,MIC,Klebsiella pneumoniae,> 50 µg/mL
same,MIC,Escherichia coli,> 50 µg/mL
same,MIC,Pseudomonas aeruginosa,50 µg/mL
same,MIC,Staphylococcus aureus,> 50 µg/mL
O=C1C(=O)c2ccccc2C(O)=C1Sc1ncc[nH]1,MIC,Candida albicans,> 50 µg/mL
same,MIC,Cryptococcus neoformans,50 µg/mL
same,MIC,Sporothrix schenckii,> 50 µg/mL
same,MIC,Trichophyton benhamiae,> 50 µg/mL
same,MIC,Aspergillus fumigatus,> 50 µg/mL
same,MIC,Candida parapsilosis,> 50 µg/mL
same,MIC,Enterococcus faecalis,25 µg/mL
same,MIC,Klebsiella pneumoniae,> 50 µg/mL
same,MIC,Escherichia coli,> 50 µg/mL
same,MIC,Pseudomonas aeruginosa,> 50 µg/mL
same,MIC,Staphylococcus aureus,50 µg/mL
OC(Cn1cncn1)(Cn1cncn1)c1ccc(F)cc1F [FLUCONAZOLE],MIC,Candida albicans,1 µg/mL
same,MIC,Cryptococcus neoformans,1 µg/mL
same,MIC,Sporothrix schenckii,2 µg/mL
same,MIC,Trichophyton benhamiae,0.5 µg/mL
same,MIC,Aspergillus fumigatus,2 µg/mL
same,MIC,Candida parapsilosis,2 µg/mL
C[C@@H]1[C@H](O)[C@@H](C)/C=C/C=C/C=C/C=C/C=C/C=C/C=C/[C@H](O[C@@H]2O[C@H](C)[C@@H](O)[C@H](N)[C@@H]2O)C[C@@H]2O[C@](O)(C[C@@H](O)C[C@@H](O)[C@H](O)CC[C@@H](O)C[C@@H](O)CC(=O)O[C@H]1C)C[C@H](O)[C@H]2C(=O)O [AMPHOTERICIN B],MIC,Candida albicans,0.39 µg/mL
same,MIC,Cryptococcus neoformans,0.78 µg/mL
same,MIC,Trichophyton benhamiae,1.56 µg/mL
COC(=O)C(CC(C)C)/N=C1\C=C(O)c2ccccc2C1=O (centres undefined),MIC,Candida albicans,> 50 µg/mL
same,MIC,Cryptococcus neoformans,25 µg/mL
same,MIC,Sporothrix schenckii,> 50 µg/mL
same,MIC,Trichophyton benhamiae,> 50 µg/mL
same,MIC,Aspergillus fumigatus,> 50 µg/mL
same,MIC,Candida parapsilosis,50 µg/mL
same,MIC,Enterococcus faecalis,12.5 µg/mL
same,MIC,Klebsiella pneumoniae,6.25 µg/mL
same,MIC,Escherichia coli,12.5 µg/mL
same,MIC,Pseudomonas aeruginosa,> 50 µg/mL
same,MIC,Staphylococcus aureus,12.5 µg/mL
O=C1c2ccccc2C(=O)c2c1sc1nccn21,MIC,Candida albicans,50 µg/mL
same,MIC,Cryptococcus neoformans,12.5 µg/mL
same,MIC,Sporothrix schenckii,25 µg/mL
same,MIC,Trichophyton benhamiae,25 µg/mL
same,MIC,Aspergillus fumigatus,25 µg/mL
same,MIC,Enterococcus faecalis,25 µg/mL
same,MIC,Klebsiella pneumoniae,> 50 µg/mL
same,MIC,Escherichia coli,50 µg/mL
same,MIC,Pseudomonas aeruginosa,> 50 µg/mL
same,MIC,Staphylococcus aureus,50 µg/mL
COC(=O)C/N=C1\C=C(O)c2ccccc2C1=O,MIC,Candida albicans,50 µg/mL
same,MIC,Cryptococcus neoformans,50 µg/mL
same,MIC,Sporothrix schenckii,50 µg/mL
same,MIC,Trichophyton benhamiae,> 50 µg/mL
same,MIC,Aspergillus fumigatus,25 µg/mL
same,MIC,Candida parapsilosis,50 µg/mL
NYSTATIN,MIC,Candida albicans,7.8 µg/mL
same,MIC,Cryptococcus neoformans,3.5 µg/mL
same,MIC,Sporothrix schenckii,13.2 µg/mL
COC(=O)C/N=C1/C(=O)c2ccccc2C(O)=C1O,MIC,Enterococcus faecalis,50 µg/mL
same,MIC,Klebsiella pneumoniae,> 50 µg/mL
same,MIC,Escherichia coli,50 µg/mL
same,MIC,Pseudomonas aeruginosa,50 µg/mL
same,MIC,Staphylococcus aureus,50 µg/mL
COC(=O)C(CCSC)/N=C1/C(=O)c2ccccc2C(O)=C1O (centres undefined),MIC,Candida albicans,12.5 µg/mL
same,MIC,Cryptococcus neoformans,12.5 µg/mL
same,MIC,Sporothrix schenckii,25 µg/mL
same,MIC,Trichophyton benhamiae,12.5 µg/mL
same,MIC,Aspergillus fumigatus,12.5 µg/mL
same,MIC,Candida parapsilosis,25 µg/mL
same,MIC,Enterococcus faecalis,25 µg/mL
same,MIC,Klebsiella pneumoniae,> 50 µg/mL
same,MIC,Escherichia coli,> 50 µg/mL
same,MIC,Pseudomonas aeruginosa,> 50 µg/mL
same,MIC,Staphylococcus aureus,> 50 µg/mL
COC(=O)C(CCSC)/N=C1\C=C(O)c2ccccc2C1=O (centres undefined),MIC,Candida albicans,> 50 µg/mL
same,MIC,Cryptococcus neoformans,25 µg/mL
same,MIC,Sporothrix schenckii,> 50 µg/mL
same,MIC,Trichophyton benhamiae,> 50 µg/mL
same,MIC,Aspergillus fumigatus,> 50 µg/mL
same,MIC,Candida parapsilosis,> 50 µg/mL
same,MIC,Enterococcus faecalis,12.5 µg/mL
same,MIC,Klebsiella pneumoniae,6.25 µg/mL
same,MIC,Escherichia coli,> 50 µg/mL
same,MIC,Pseudomonas aeruginosa,> 50 µg/mL
same,MIC,Staphylococcus aureus,> 50 µg/mL
